Columns and labels:
Settings in all cases: FGFR binding data
[1] = target: T1, FGFR1 (Homo sapiens, UniProt P11362); experiment: Kinase binding assay (kinase-tagged T7 phage, affinity beads, qPCR readout), FGFR1
T1 construct: made in house; host or cells: E. coli derived from BL21, infected with T7 phage
Experimental: (§1) Kinase-tagged T7 phage strains were prepared in an E. coli host derived from the BL21 strain. E. coli were grown to log-phase and infected with T7 phage and incubated with shaking at 32° C. until lysis. The lysates were centrifuged and filtered to remove cell debris. Streptavidin-coated magnetic beads were treated with biotinylated small molecule ligands for 30 minutes at room temperature to generate affinity resins for kinase assays. The liganded beads were blocked with excess biotin and washed with blocking buffer SeaBlock (Pierce), 1% BSA, 0.05% Tween 20, 1 mM DTT to remove unbound ligand and to reduce non-specific binding. Binding reactions were assembled by combining kinases, liganded affinity beads, and test compounds in 1× binding buffer (20% SeaBlock, 0.17×PBS, 0.05% Tween 20, 6 mM DTT).
(§2) Test compounds were prepared as 111× stocks in 100% DMSO. Kds were determined using an 11-point 3-fold compound dilution series with three DMSO control points. All compounds for Kd measurements are distributed by acoustic transfer (non-contact dispensing) in 100% DMSO. The compounds were then diluted directly into the assays such that the final concentration of DMSO was 0.9%. All reactions performed in polypropylene 384-well plate. Each was a final volume of 0.02 ml. The assay plates were incubated at room temperature with shaking for 1 hour and the affinity beads were washed with wash buffer (1×PBS, 0.05% Tween 20). The beads were then re-suspended in elution buffer (1×PBS, 0.05% Tween 20, 0.5 μM non-biotinylated affinity ligand) and incubated at room temperature with shaking for 30 minutes. The kinase concentration in the eluates was measured by qPCR.
(§3) Binding constants were calculated with a standard dose-response curve using the Hill equation: […]
(§4) The Hill Slope was set to −1. Curves were fitted using a non-linear least square fit with the Levenberg-Marquardt algorithm.

[2] = target: T2, FGFR2 (Homo sapiens, UniProt P21802); experiment: Kinase binding assay (kinase-tagged T7 phage, affinity beads, qPCR readout), FGFR2
T2 construct: made in house; host or cells: E. coli derived from BL21, infected with T7 phage
T2 sequence (P21802 22-821): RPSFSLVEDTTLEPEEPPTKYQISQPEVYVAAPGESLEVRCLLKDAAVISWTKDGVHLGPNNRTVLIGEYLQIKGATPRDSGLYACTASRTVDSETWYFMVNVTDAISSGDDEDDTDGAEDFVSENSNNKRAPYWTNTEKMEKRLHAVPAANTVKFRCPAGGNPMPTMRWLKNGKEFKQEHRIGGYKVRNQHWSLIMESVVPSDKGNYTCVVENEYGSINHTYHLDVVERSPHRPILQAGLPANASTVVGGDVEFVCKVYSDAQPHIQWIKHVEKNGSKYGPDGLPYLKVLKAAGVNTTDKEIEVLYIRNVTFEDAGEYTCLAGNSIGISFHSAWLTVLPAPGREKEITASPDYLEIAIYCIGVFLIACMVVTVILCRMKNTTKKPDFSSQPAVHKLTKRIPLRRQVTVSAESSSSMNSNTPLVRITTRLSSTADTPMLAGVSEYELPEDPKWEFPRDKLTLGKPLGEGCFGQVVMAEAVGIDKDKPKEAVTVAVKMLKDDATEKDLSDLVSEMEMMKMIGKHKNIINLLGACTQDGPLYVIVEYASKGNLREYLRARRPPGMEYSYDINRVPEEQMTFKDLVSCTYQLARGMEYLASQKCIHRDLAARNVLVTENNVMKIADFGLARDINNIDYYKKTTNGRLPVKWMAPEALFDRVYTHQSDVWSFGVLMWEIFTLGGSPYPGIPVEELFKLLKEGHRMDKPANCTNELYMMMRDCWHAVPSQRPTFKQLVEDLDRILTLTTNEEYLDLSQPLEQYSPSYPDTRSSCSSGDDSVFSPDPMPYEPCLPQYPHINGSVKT
Experimental: as §1, §2, §3, §4

[3] = target: T3, FGFR3 (Homo sapiens, UniProt P22607); experiment: Kinase binding assay (kinase-tagged T7 phage, affinity beads, qPCR readout), FGFR3
T3 construct: made in house; host or cells: E. coli derived from BL21, infected with T7 phage
T3 sequence (P22607 23-806): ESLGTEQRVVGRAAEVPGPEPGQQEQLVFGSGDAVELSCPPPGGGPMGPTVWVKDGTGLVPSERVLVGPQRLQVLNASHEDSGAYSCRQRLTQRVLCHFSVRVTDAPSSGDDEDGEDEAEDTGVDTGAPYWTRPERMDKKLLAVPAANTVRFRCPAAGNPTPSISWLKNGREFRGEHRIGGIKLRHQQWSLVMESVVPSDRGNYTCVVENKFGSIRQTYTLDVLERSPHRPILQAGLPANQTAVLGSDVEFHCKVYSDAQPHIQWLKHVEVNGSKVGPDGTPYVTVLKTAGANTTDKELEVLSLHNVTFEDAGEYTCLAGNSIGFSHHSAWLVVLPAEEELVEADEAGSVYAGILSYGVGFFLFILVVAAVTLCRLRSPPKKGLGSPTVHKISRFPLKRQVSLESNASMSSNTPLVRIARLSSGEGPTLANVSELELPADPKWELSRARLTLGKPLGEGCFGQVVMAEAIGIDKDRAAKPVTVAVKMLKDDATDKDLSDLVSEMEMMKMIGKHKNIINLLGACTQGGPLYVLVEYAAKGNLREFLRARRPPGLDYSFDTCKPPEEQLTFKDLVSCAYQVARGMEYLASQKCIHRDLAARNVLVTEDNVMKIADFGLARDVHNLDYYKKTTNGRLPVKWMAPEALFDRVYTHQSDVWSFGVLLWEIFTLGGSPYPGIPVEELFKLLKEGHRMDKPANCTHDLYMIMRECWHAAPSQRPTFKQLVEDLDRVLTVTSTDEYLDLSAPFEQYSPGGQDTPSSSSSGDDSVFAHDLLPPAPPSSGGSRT
Experimental: as §1, §2, §3, §4

[4] = target: T4, FGFR3 (V555M) (Homo sapiens, UniProt P22607, V555M); experiment: Kinase binding assay (kinase-tagged T7 phage, affinity beads, qPCR readout), FGFR3 (V555M)
T4 construct: made in house; host or cells: E. coli derived from BL21, infected with T7 phage
T4 sequence (P22607 23-806 V555M): as the sequence (P22607 23-806) above, with V533M counted along it
Experimental: as §1, §2, §3, §4

T1 sequence (P11362 22-822): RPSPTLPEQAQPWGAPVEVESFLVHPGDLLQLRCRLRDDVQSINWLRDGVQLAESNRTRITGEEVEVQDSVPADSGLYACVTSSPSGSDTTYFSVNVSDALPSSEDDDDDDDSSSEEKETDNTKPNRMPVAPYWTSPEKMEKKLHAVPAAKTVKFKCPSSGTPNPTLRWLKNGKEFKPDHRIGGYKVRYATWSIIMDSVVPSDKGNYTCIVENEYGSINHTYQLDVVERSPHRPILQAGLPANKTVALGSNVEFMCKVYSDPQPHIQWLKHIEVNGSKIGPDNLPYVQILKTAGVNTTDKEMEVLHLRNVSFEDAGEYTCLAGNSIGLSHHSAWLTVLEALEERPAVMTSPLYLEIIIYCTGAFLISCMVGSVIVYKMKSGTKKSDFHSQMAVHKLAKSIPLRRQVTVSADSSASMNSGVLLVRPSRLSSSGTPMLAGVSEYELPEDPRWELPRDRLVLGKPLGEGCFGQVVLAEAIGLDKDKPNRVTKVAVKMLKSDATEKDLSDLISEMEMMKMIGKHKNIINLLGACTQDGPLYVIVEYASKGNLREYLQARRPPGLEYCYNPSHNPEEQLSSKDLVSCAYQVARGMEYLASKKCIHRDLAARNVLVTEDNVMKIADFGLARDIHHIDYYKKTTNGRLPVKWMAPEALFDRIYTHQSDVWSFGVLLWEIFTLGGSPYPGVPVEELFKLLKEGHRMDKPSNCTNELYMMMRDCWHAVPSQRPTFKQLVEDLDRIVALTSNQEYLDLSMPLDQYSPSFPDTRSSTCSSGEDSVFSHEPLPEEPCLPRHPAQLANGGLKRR

| Kd [1] [nM] | Kd [2] [nM] | Kd [3] [nM] | Kd [4] [nM] | SMILES |
| --- | --- | --- | --- | --- |
| 0.1 to 100 | 0.1 to 100 | 0.1 to 100 | 0.1 to 100 | C=CC(=O)Nc1ccc2c(c1)c(C)cn2-c1nc(Nc2cnn(CCOC(C)C)c2)ncc1F [Example 203, N-[1-[5-fluoro-2-[[1-(2-isopropoxyethyl)pyrazol-4-yl]amino]pyrimidin-4-yl]-3-methyl-indol-5-yl]prop-2-enamide] |
| > 1000 | > 1000 | > 1000 | > 1000 | C=CC(=O)Nc1ccc2c(c1)c(C)cn2-c1cc(Nc2cnn(C)c2)nnc1C [Example 221, N-[3-methyl-1-[3-methyl-6-[(1-methylpyrazol-4-yl)amino]pyridazin-4-yl]indol-5-yl]prop-2-enamide] |
| 0.1 to 100 | 0.1 to 100 | 0.1 to 100 | 0.1 to 100 | C=CC(=O)Nc1ccc2c(c1)c(C)cn2-c1nc(Nc2ccc(N3CCOCC3)c(OC)c2)ncc1C [Example 46, N-[1-[2-(3-methoxy-4-morpholino-anilino)-5-methyl-pyrimidin-4-yl]-3-methyl-indol-5-yl]prop-2-enamide] |
| 0.1 to 100 | 0.1 to 100 | 0.1 to 100 | 0.1 to 100 | C=CC(=O)Nc1ccc2c(-c3ccnc(Nc4cnn(CC5CC5)c4)n3)cn(C)c2c1 [Example 105, N-[3-[2-[[1-(cyclopropylmethyl)pyrazol-4-yl]amino]pyrimidin-4-yl]-1-methyl-indol-6-yl]prop-2-enamide] |
| 0.1 to 100 | 0.1 to 100 | 0.1 to 100 | 0.1 to 100 | C=CC(=O)Nc1cnc2c(c1)c(C)cn2-c1nc(Nc2ccn(C3COC3)n2)ncc1C [Example 113, N-[3-methyl-1-[5-methyl-2-[[1-(oxetan-3-yl)pyrazol-3-yl]amino]-pyrimidin-4-yl]pyrrolo[2,3-b]pyridin-5-yl]prop-2-enamide] |
| 250 to 1000 | 250 to 1000 | 100 to 250 | 250 to 1000 | Cc1cn(-c2nc(Nc3cnn(C[C@@H](C)O)c3)ncc2F)c2ncc(NC(=O)/C=C/CN3CCOCC3)cc12 [Example 197, (E)-N-[1-[5-fluoro-2-[[1-[(2R)-2-hydroxypropyl]pyrazol-4-yl]amino]pyrimidin-4-yl]-3-methyl-pyrrolo[2,3-b]pyridin-5-yl]-4-morpholino-but-2-enamide] |
| 0.1 to 100 | 0.1 to 100 | 0.1 to 100 | 0.1 to 100 | C=CC(=O)Nc1ccc2c(c1)c(C)cn2-c1ccnc(Nc2cnn(CCO)c2)n1 [Example 137, N-[1-[2-[[1-(2-hydroxyethyl)pyrazol-4-yl]amino]pyrimidin-4-yl]-3-methyl-indol-5-yl]prop-2-enamide] |
| > 1000 | > 1000 | > 1000 | > 1000 | C=CC(=O)Nc1ccc2c(ccn2-c2nc(Nc3ccccc3OCCN3CCOCC3)ncc2Cl)c1 [Example 13, N-[1-[5-chloro-2-[2-(2-morpholinoethoxy)anilino]pyrimidin-4-yl]indol-5-yl]prop-2-enamide] |
| 0.1 to 100 | 0.1 to 100 | 0.1 to 100 | 0.1 to 100 | Cc1cnc(Nc2cn(C)nc2C)nc1-n1cc(C)c2cc(NC(=O)/C=C/CN(C)C)cnc21 [Example 200, (E)-4-(dimethylamino)-N-[1-[2-[(1,3-dimethylpyrazol-4-yl)amino]-5-methyl-pyrimidin-4-yl]-3-methyl-pyrrolo[2,3-b]pyridin-5-yl]but-2-enamide] |
| 250 to 1000 | 250 to 1000 | 100 to 250 | 100 to 250 | C=CC(=O)Nc1ccc2c(c1)c(C)cn2-c1cc(Nc2cn(C)nc2C)ncc1C [Example 224, N-[1-[2-[(1,3-dimethylpyrazol-4-yl)amino]-5-methyl-4-pyridyl]-3-methyl-indol-5-yl]prop-2-enamide] |
| 250 to 1000 | 0.1 to 100 | 0.1 to 100 | 0.1 to 100 | C=CC(=O)Nc1ccc2c(-c3nc(Nc4cc(C)nn4C)ncc3Cl)cn(C)c2c1 [Example 63, N-[3-[5-chloro-2-[(2,5-dimethylpyrazol-3-yl)amino]-pyrimidin-4-yl]-1-methyl-indol-6-yl]prop-2-enamide] |
| > 1000 | 250 to 1000 | 250 to 1000 | 250 to 1000 | CC#CC(=O)Nc1ccc2c(-c3ccnc(Nc4cnn(CCO)c4)n3)cn(C)c2c1 [Example 145, N-[3-[2-[[1-(2-hydroxyethyl)pyrazol-4-yl]amino]pyrimidin-4-yl]-1-methyl-indol-6-yl]but-2-ynamide] |
| 0.1 to 100 | 0.1 to 100 | 0.1 to 100 | 0.1 to 100 | C#CC(=O)Nc1ccc2c(c1)c(C)cn2-c1nc(Nc2cnn(CCO)c2)ncc1F [Example 129, N-[1-[5-fluoro-2-[[1-(2-hydroxyethyl)pyrazol-4-yl]amino]pyrimidin-4-yl]-3-methyl-indol-5-yl]prop-2-ynamide] |
| 0.1 to 100 | 0.1 to 100 | 0.1 to 100 | 0.1 to 100 | C=CC(=O)Nc1ccc2c(c1)c(C)cn2-c1nc(Nc2cnn(C[C@H](C)OC)c2)ncc1F [Example 205] |
| > 1000 | > 1000 | > 1000 | > 1000 | C=CC(=O)Nc1ccc2c(c1)c(C)cn2-c1cc(Nc2cn(C)nc2C)ncn1 [Example 222, N-[1-[6-[(1,3-dimethylpyrazol-4-yl)amino]pyrimidin-4-yl]-3-methyl-indol-5-yl]prop-2-enamide] |
| 0.1 to 100 | 0.1 to 100 | 0.1 to 100 | 0.1 to 100 | C=CC(=O)Nc1ccc2c(c1)c(C)cn2-c1ncnc(Nc2cnn(C)c2)n1 [Example 218, N-[3-methyl-1-[4-[(1-methylpyrazol-4-yl)amino]-1,3,5-triazin-2-yl]indol-5-yl]prop-2-enamide] |
| 250 to 1000 | > 1000 | > 1000 | 100 to 250 | C=CC(=O)Nc1ccc2c(ccn2-c2nc(Nc3cn(C)nc3OCC)ncc2Cl)c1 [Example 14, N-[1-[5-chloro-2-[(3-ethoxy-1-methyl-pyrazol-4-yl)amino]pyrimidin-4-yl]indol-5-yl]prop-2-enamide] |
| 250 to 1000 | 0.1 to 100 | 0.1 to 100 | 0.1 to 100 | C=CC(=O)Nc1ccc2c(c1)c(C)cn2-c1nc(Nc2cccnc2F)ncc1F [Example 157, N-[1-[5-fluoro-2-[(2-fluoro-3-pyridyl)amino]pyrimidin-4-yl]-3-methyl-indol-5-yl]prop-2-enamide] |
| 0.1 to 100 | 0.1 to 100 | 0.1 to 100 | 0.1 to 100 | C=CC(=O)Nc1ccc2c(c1)c(C)cn2-c1nc(Nc2ccc(N3CCOCC3)nc2)ncc1Cl [Example 91, N-[1-[5-chloro-2-[(6-morpholino-3-pyridyl)amino]pyrimidin-4-yl]-3-methyl-indol-5-yl]prop-2-enamide] |
| > 1000 | > 1000 | > 1000 | > 1000 | C=CC(=O)Nc1ccc2c(c1)c(C)cn2-c1nc(Nc2c(C)cccc2OCC)ncc1Cl [Example 29, N-[1-[5-chloro-2-(2-ethoxy-6-methyl-anilino)pyrimidin-4-yl]-3-methyl-indol-5-yl]prop-2-enamide] |
| 250 to 1000 | 0.1 to 100 | 0.1 to 100 | 0.1 to 100 | C=CC(=O)Nc1ccc2c(-c3nc(Nc4cn(CC(F)F)nc4C)ncc3F)cn(C)c2c1 [Example 169, N-[3-[2-[[1-(2,2-difluoroethyl)-3-methyl-pyrazol-4-yl]amino]-5-fluoro-pyrimidin-4-yl]-1-methyl-indol-6-yl]prop-2-enamide] |
| 0.1 to 100 | 0.1 to 100 | 0.1 to 100 | 0.1 to 100 | C=CC(=O)Nc1cc(C)c2c(c1)c(C)cn2-c1nc(Nc2cnn(C)c2)ncc1Cl [Example 84, N-[1-[5-chloro-2-[(1-methylpyrazol-4-yl)amino]pyrimidin-4-yl]-3,7-dimethyl-indol-5-yl]prop-2-enamide] |
| > 1000 | > 1000 | > 1000 | > 1000 | CC#CC(=O)Nc1ccc2c(c1)c(C)cn2-c1nc(Nc2ccnn2C)ncc1F [Example 139, N-[1-[5-fluoro-2-[(2-methylpyrazol-3-yl)amino]pyrimidin-4-yl]-3-methyl-indol-5-yl]but-2-ynamide] |
| > 1000 | > 1000 | > 1000 | > 1000 | C=CC(=O)Nc1ccc2c(-c3ccnc(Nc4cc(C)[nH]n4)n3)cn(C)c2c1 [Example 111, N-[1-methyl-3-[2-[(5-methyl-1H-pyrazol-3-yl)amino]pyrimidin-4-yl]indol-6-yl]prop-2-enamide] |
| > 1000 | > 1000 | > 1000 | 250 to 1000 | C=C(F)C(=O)Nc1ccc2c(c1)c(C)cn2-c1nc(Nc2ccnn2C)ncc1C [Example 110, 2-fluoro-N-[3-methyl-1-[5-methyl-2-[(2-methylpyrazol-3-yl)amino]pyrimidin-4-yl]indol-5-yl]prop-2-enamide] |
